Results reported in article PMC7555276, “Using Ex Vivo Porcine Jejunum to Identify Membrane Transporter Substrates: A Screening Tool for Early—Stage Drug Development” (Biomedicines, 2020).
Converted amounts (≈) assume the structure as drawn. Read-outs that look alike come from different tables or passages of the source.

Experiments:
[1] = tested on: human intestine; set-up: method as in PMID 23103351, PMID 21416475; details: absence of inhibitor; cited from earlier work
[2] = tested on: ex vivo porcine jejunum; assay: Ussing chamber permeation across ex vivo porcine jejunum; assay type: in vitro ADME, pig; details: for change of Papp,pig in the presence of the corresponding inhibitor / change of QDEP in the presence of the corresponding inhibitor: statistical comparison, α = 0.05, inhibitors as E19; for QPERM (+INH) / QDEP (+INH): presence of the corresponding transporter inhibitor (as E19); for Papp,pig fold lower than Papp,human: vs reported ex vivo human intestine
Excerpt: (§1) Fresh jejunum from female, 6 month-old Swiss noble pigs was harvested immediately after slaughter (Abattoir de […], Switzerland and Abattoir de Loëx; Bernex, Switzerland). […] Briefly, the intestine was opened along the mesenteric border and carefully rinsed with ice-cold KBR. […] A six Ussing chamber system was used for the intestinal transport experiments (Physiologic Instruments; San Diego, CA, USA). The Ussing chambers were set up on a heating block connected to a VCC MC6 MultiChannel voltage-current clamp via six input modules, containing integral dummy membranes. A temperature of 38 °C (porcine body temperature) was maintained using a circulating water bath (ED-5, Julabo GmbH, Seelbach, Germany). The Ussing chamber system was set up following the protocol of […] et al. […] In a first step, the acceptor and donor compartments of the Ussing chamber were filled with preheated KBR, and any voltage difference between the electrodes and the electrical resistance due to the buffer solution was eliminated. […] The choice of all substrates and inhibitors was based on the University of California, San Francisco-Food and Drug Administration (UCSF-FDA) TransPortal. The substrates tested, their physicochemical properties and the inhibitors used are described in Table 1. […] The integrity of the intestinal tissue was monitored throughout the experiment by measurement of the transepithelial resistance (TEER). […] At the end of the experiment, samples were taken from the acceptor and the donor compartment. The intestinal tissue was cut into little pieces and extracted for 6 h at room temperature in the mobile phase used for the UHPLC-MS/MS analysis (see Supplementary Information). […] Mass spectrometry was performed in multiple reaction monitoring (MRM) mode. All details of the analytical methods used for each of the molecules tested can be found in the Supplementary Information.

[3] = as above; assay type: in vitro ADME, pig; details: female, Swiss noble, pig
Excerpt: as §1

[4] = tested on: P-gp; details: substrate of P-gp, cited from earlier work
[5] = tested on: rat intestine; details: absence of inhibitor; cited from earlier work
[6] = Solubility in KBR buffer; assay type: physicochemical; details: aqueous buffer, Krebs-bicarbonate ringer buffer pH 7.4
[7] = tested on: MRP2; details: cited from earlier work
[8] = tested on: BCRP; details: cited from earlier work
[9] = set-up: method as in earlier work; details: cited from earlier work
[10] = tested on: OATP2B1; details: cited from earlier work
[11] = tested on: porcine intestine (ileum, jejunum); set-up: method as in PMID 30901927; details: porcine ileum and jejunum; cited from earlier work
[12] = tested on: PEPT1; set-up: method as in PMID 18824524; details: inhibitor of PEPT1; cited from earlier work
[13] = tested on: OCT1; details: substrate of OCT1; cited from earlier work
[14] = female, Swiss noble, pig, 2 h, pH 7.4
[15] = drug in acceptor compartment at t = 2 h, absence of inhibitor
[16] = drug in acceptor compartment at t = 2 h
[17] = drug retained in intestinal membrane at t = 2 h, absence of inhibitor
[18] = drug retained in intestinal membrane at t = 2 h
[19] = pH 7.4, absence of inhibitor, substrate 100 µM (digoxin 50 µM), 38 °C, KBR, read-out: Papp,pig (−INH)
[20] = Krebs-bicarbonate ringer (KBR) buffer

Row | Compound | change of Papp,pig in the presence of the corresponding inhibitor [2] | QPERM (−INH) [2, 15] | QPERM (+INH) [2, 16] | QDEP (−INH) [2, 17] [%] | QDEP (+INH) [2, 18] [%] | Papp at 120 min [3, 19] [×10⁻⁶ cm/s] | solubility [6, 20] [µg/mL] | Papp,human (−INH) [1] | Papp,rat (−INH) [5] | other results
1 | COc1ccc2c(c1)c(CC(=O)O)c(C)n2C(=O)c1ccc(Cl)cc1 [Indomethacin] |  |  |  |  |  |  |  |  |  | IC50 ([7]; inhibitor of MRP2): 0.06 µM
2 | CC(C)n1c(/C=C/C(O)CC(O)CC(=O)O)c(-c2ccc(F)cc2)c2ccccc21 (stereo not drawn) [Fluvastatin] |  |  |  |  |  |  |  |  |  | Ki ([8]; inhibitor of BCRP): 5.43 µM
3 | CC1=C(C(=O)O)N2C(=O)[C@@H](NC(=O)[C@H](N)c3ccc(O)cc3)[C@H]2SC1 [Cefadroxil] | statistically significant decrease | 0.50 ± 0.18 (4) % | 0.31 ± 0.12 (6) % | 1.31 ± 0.40 | 1.47 ± 0.25 | 2.82 ± 0.2 | 45000 ± 1100 (≈ 124 mM) |  | 4.99 ± 0.50 [70] 10^−6 cm/s | Papp,pig fold lower than Papp,rat ([2]; corresponding segment of the intestine): ~ 1.8 fold; log P [9]: −0.4
4 | CN(CCOc1ccc(CC2SC(=O)NC2=O)cc1)c1ccccn1 (stereo not drawn) [Rosiglitazone] |  |  |  |  |  |  |  |  |  | IC50 ([10]; inhibitor of OATP2B1): 5.2 µM
5 | CN/C(=N/CCSCc1nc[nH]c1C)NC#N [cimetidine] |  |  |  |  |  |  |  |  |  | effect of P-gp inhibition on Papp,pig [11]: significant increase of Papp,pig in the ileum, but not in the jejunum
6 | CCCCc1nc(Cl)c(CO)n1Cc1ccc(-c2ccccc2-c2nn[nH]n2)cc1 [Losartan] |  |  |  |  |  |  |  |  |  | IC50 [12]: 52 µM; Ki [12]: 24 µM

Second part, led by results:

Row | change of Papp,pig in the presence of the corresponding inhibitor [2] | QPERM (−INH) [2, 15] | QPERM (+INH) [2, 16] | QDEP (−INH) [2, 17] [%] | QDEP (+INH) [2, 18] [%] | Papp at 120 min [3, 19] [×10⁻⁶ cm/s] | solubility [6, 20] [µg/mL] | Compound | Papp,human (−INH) [1] | Papp,rat (−INH) [5] | other results
7 | significantly increased |  |  |  |  |  |  | C[C@H]1O[C@@H](O[C@H]2[C@@H](O)C[C@H](O[C@H]3[C@@H](O)C[C@H](O[C@H]4CC[C@@]5(C)[C@H](CC[C@@H]6[C@@H]5C[C@@H](O)[C@]5(C)[C@@H](C7=CC(=O)OC7)CC[C@]65O)C4)O[C@@H]3C)O[C@@H]2C)C[C@H](O)[C@@H]1O [Digoxin] | 1.44 ± 0.72 [30] 10^−6 cm/s | 6.4 ± 1.9 [14] 10^−6 cm/s | QDEP (−INH) [2, 14]: 0.62 ± 0.17%; QPERM (−INH) [2, 14]: 0.21 ± 0.12 (4) %; Papp at 120 min ([3]; pH 7.4, Papp,pig (−INH)): 0.38 ± 0.23 ×10⁻⁶ cm/s; Km ([4]; ref 58): 73 µM; Km ([4]; ref 95): 0.73 µM; solubility [6]: 40 ± 10 µg/mL (≈ 0.0512 mM)
8 | No significant difference | 0.17 ± 0.02 (4) % | 0.24 ± 0.10 (4) % | 0.44 ± 0.02 | 0.57 ± 0.07 | 1.2 ± 0.1 |  | CCCCC(=O)N(Cc1ccc(-c2ccccc2-c2nnn[nH]2)cc1)[C@H](C(=O)O)C(C)C [Valsartan] |  |  | Km ([7]; substrate of MRP2): 30.4 µM; change of QDEP in the presence of the corresponding inhibitor [2]: significantly higher
9 |  |  | 0.12 ± 0.07 (9) % | 3.23 ± 0.56 | 2.47 ± 1.24 | 0.006 ± 0.004 | 3310 ± 140 (≈ 8.31 mM) | O=C(O)c1cc(/N=N/c2ccc(S(=O)(=O)Nc3ccccn3)cc2)ccc1O [Sulfasalazine] | 0.09 ± 0.06 [30] 10^−6 cm/s | 2.76 ± 0.19 [73] 10^−6 cm/s | fold increase of Papp,pig in the presence of the inhibitor ([2]; digoxin+verapamil, sulfasalazine+fluvastatin): 100 fold; Papp,pig fold lower than Papp,human [2]: ~ 10 fold; Km ([8]; substrate of BCRP): 0.7 µM; log P [9]: 0.4
10 | significantly increased | 0.17 ± 0.09 (7) % | 0.29 ± 0.16 (6) % | 3.10 ± 1.46 | 1.30 ± 0.14 | 0.91 ± 0.64 | 420 ± 160 (≈ 0.872 mM) | CC(C)c1nc(N(C)S(C)(=O)=O)nc(-c2ccc(F)cc2)c1/C=C/[C@@H](O)C[C@@H](O)CC(=O)O [Rosuvastatin] | 6.95 ± 1.50 [30] 10^−6 cm/s |  | change of QDEP in the presence of the corresponding inhibitor [2]: significantly decreased; Papp,pig fold lower than Papp,human [2]: ~ 9 fold; log P [9]: 0.13; Km ([10]; substrate of OATP2B1): 2.4 µM
11 | significant decrease | 0.62 ± 0.17 (12) % | 0.21 ± 0.03 (5) % | 1.11 ± 0.46 | 0.43 ± 0.12 | 5.07 ± 0.83 | 19600 ± 2780 (≈ 62.5 mM) | CNC(=C[N+](=O)[O-])NCCSCc1ccc(CN(C)C)o1 [Ranitidine] | 5.50 [72] 10^−6 cm/s | 4.00 [72] 10^−6 cm/s | change of QDEP in the presence of the corresponding inhibitor [2]: significant decrease; Km [13]: 70 µM; Km ([4]; ref 93): 270 µM; effect of P-gp inhibition on Papp,pig [11]: significant increase of Papp,pig in the ileum, but not in the jejunum
